In assay [1] the test system is sciatic nerve. Briefly: Evoked compound action potentials (CAP), ipsilateral sciatic nerve after intraneural injection. It counts as in vivo, male Sprague Dawley (SD) rats. To be noted: for effect of yohimbine pre-administration on elimination of evoked sciatic action potentials by clonidine: 1 mg yohimbine SQ 5 minutes prior to 500 μg intraneural clonidine, HCL. The text has this:
(§1) It is noted that alpha 2 adrenergic receptors are not expressed along the peripheral axons of the nerve. They are on nerve endings and in the spinal cord, where peripheral nerves synapse with interneurons in the dorsal horn. There also may be receptor-mediated effects on immunoinflammatory cells. […] However, there was no effect on the left sciatic nerve.
2 m Amp stimulation in the ankle causes the action potential to propagate up to the tibial nerves and then the sciatic nerve to the dorsal horn of the spinal cord in the rat model.
(§2) Methods: Peripheral nerve function was assessed by evoked action potentials (sciatic nerve) as well as spinal somatosensory evoked potentials in male Sprague Dawley (SD) rats. The tibial nerve was stimulated with 10 milliamperes (mA) constant current delivered with platinum micro-electrodes placed proximal to the internal ankle. Recording electrodes were placed near the proximal sciatic nerve at the sciatic notch (ipsilateral and contralateral nerves) and over the L5 interlaminar space. Measurements were obtained with a Biopac MP36 amplifier and data acquisition unit (Biopac Systems, Goleta, Cal). Following collection of baseline data, test solutions were administered directly into the subparaneural compartment of the right sciatic nerve, approximately 0.5 cm proximal to the tibial/fibular bifurcation, using a Hamilton HPLC injection syringe (20 μl, injection volume). Saline served as the negative control and commercial 2% lidocaine for injection served as the positive control.
(§3) FIG. 21 depicts representative compound action potential traces (CAP), sciatic nerve. A stimulating electrode delivered 10 mAMP current to the distal tibial nerve near the internal ankle, and a recording electrode was placed near the proximal sciatic nerve (at the sciatic notch). Following baseline recordings (top row), test solution was injected directly into the sciatic nerve (20 μl volume). Evoked compound action potentials at 3 minutes and approximately 50 minutes post-injection appear in the middle and bottom rows, respectively.

The test system of assay [2] is sciatic nerve. Briefly: Spinal somatosensory evoked potentials (SSEP) after intraneural sciatic injection. It counts as in vivo, male Sprague Dawley (SD) rats. Here is the method: as §2
The subject of assay [3] is contralateral sciatic nerve. Briefly: Evoked action potentials, contralateral sciatic nerve. Type of assay: in vivo, male Sprague Dawley (SD) rats. The procedure:
as §1, §2, §3

The test system of assay [4] is incisional pain model. Conditions: no temporal relationship to systemic exposure; cited from earlier work.
Setting [5] is: intraneural injection, 20 μl, 4 parameter non-linear regression.
[6] abbreviates: commercial 2% lidocaine for injection, 20 μl intraneural.

“Also recorded” adds a separate entry of the source. Counter-ions that a name gives are not always drawn. Bounds are passed on as bounds.

Regarding `Clc1cccc(Cl)c1N=C1NCCN1` [clonidine, 2,6-dichloro-N-2-imidazolidinyldenebenzenamine], the “effect on CAP amplitude” value in assay [1] (50 μg intraneural) was “no discernable effect”. In addition, the “time through which sciatic evoked potential amplitude differed from control (p<0.05)” value amounted to 7 min in assay [1] (100 μg), 18 min in assay [1] (200 μg) and 35 min in assay [1] (500 μg). Further, the “effect on action potential (CAP) amplitude” value in assay [1] (100 μg intraneural, versus control, 3 minutes) was “significant reduction; also recorded: significantly blunted”; in assay [1] (200 μg intraneural), “significantly greater reduction”; in assay [1] (200 μg intraneural, listed as clonidine HCL) it was “virtually eliminated”. Besides, the “effect on compound action potentials in the ipsilateral sciatic nerve” value in assay [1] (500 μg intraneural) was “reliably eliminated”. Moreover, the “doses at which an anesthetic like effect was observed” value in assay [1] (Example 1, clinically relevant doses) is less than 100 µg. Moreover, in assay [1] (Example 2, 2 m Amp stimulation in the ankle), the “dose injected directly into nerve that eliminates the action potential” value was not below 50 µg. The duration of effect result in assay [1] (Example 2, 500 mcg lasts a lot longer than 50 mcg) is listed as “proportional to dose”. The “nerve conduction velocity as nerve fibers return to function” value in assay [1] (higher doses) is on record as “approximately normal”. Further, the “effect on propagation of action potentials, right sciatic nerve” value in assay [1] (injected directly into the right sciatic nerve of the rat (Example 1)) is on record as “blocked the ability of the nerve to propagate action potentials to the spinal cord”. Besides, in assay [1] (setting [5]), the “EC50 for evoked compound action potentials in the sciatic nerve” value was determined as 71 µg. Also, the “effect on nerve conduction velocity (ipsilateral sciatic nerve)” value in assay [1] (lower doses, fibers that continue to propagate action potentials) is recorded as “modest”. Further, in assay [2] (500 μg intraneural), the “animals in which spinal somatosensory evoked potentials were eliminated” value is 3 out of 4. For the same molecule, the “EC50 for spinal somatosensory evoked potentials” value in assay [2] (setting [5]) was found to be 118 µg. In addition, the “effect on the contralateral sciatic nerve” value is “no effect” in assay [3] (500 μg intraneural) and “not affected” in assay [3] (any dose of clonidine (50-500 μg), including spinal recordings following contralateral stimulation). Also, the “effect on the left sciatic nerve” value in assay [3] (injected into the right sciatic nerve (Example 1)) is listed as “no effect”. For the same molecule, in assay [4], the “skin concentrations associated with analgesic effect” value is given as not below 10 ng/g.

On to `CCN(CC)CC(=O)Nc1c(C)cccc1C` [lidocaine], for which, in assay [1] (2% lidocaine), the “time through which sciatic evoked potential amplitude differed from control (p<0.05)” value worked out at 35 min. The “time for which compound action potentials in the ipsilateral sciatic nerve and spine were eliminated” value in assay [1] (setting [6]) is more than 20 min. Moreover, in assay [1] (positive control 2% lidocaine (Example 1)), the “time over which nerve function recovered” value is given as “approximately one hour”. Moreover, the “effect on the contralateral sciatic nerve” value in assay [3] (setting [6]) is listed as “did not affect”.

For `COC(=O)[C@@H]1[C@H]2C[C@H]3c4[nH]c5ccccc5c4CCN3C[C@@H]2CC[C@@H]1O` [yohimbine HCL], the “effect of yohimbine pre-administration on elimination of evoked sciatic action potentials by clonidine” value in assay [1] is listed as “unaffected; also recorded: no effect”; in assay [1] (listed as yohimbine), “no effect”. Further, the “effect of yohimbine pre-administration on sciatic nerve block duration by clonidine” value in assay [1] (pre-administration t=(−)10 minutes) was “did not inhibit”. The “effect of yohimbine pre-administration on reduction in spinal SEP amplitude by clonidine” value in assay [2] (1 mg yohimbine prior to 500 μg intraneural clonidine) is “no effect”.

The values above are taken from patent US11357756B2, “Anesthetic compositions and methods comprising imidazoline compounds” (Warsaw Orthopedic, Inc., priority 2017, dated 2022).
